# Data taken from ChEMBL document CHEMBL1649173, “Single-dose escalation and multiple-dose safety, tolerability, and pharmacokinetics of IDX899, a candidate human immunodeficiency virus type 1 nonnucleoside reverse transcriptase inhibitor, in healthy subjects” (Antimicrob Agents Chemother, 2009).
# Tests used:
# [1] = AUC (0 to infinity) in fed state female healthy human at 400 mg, po administered as single dose; assay type: ADME, organism-based; parameters: dose 400 mg, time infinity, route oral; conditions: plasma
# [2] = Half life in fed state healthy human at 800 mg, po administered as single dose; assay type: ADME, organism-based; conditions: in vivo
# [3] = Apparent total plasma clearance in fasted state healthy human at 200 mg, po administered as single dose; assay type: ADME, organism-based
# [4] = test system: Human immunodeficiency virus 1; assay: Antiviral activity against HIV1; assay type: functional, organism-based
# [5] = Apparent total plasma clearance in fed state healthy human at 200 mg, po administered as single dose; assay type: ADME, organism-based
# [6] = Tmax in healthy human at 800 mg, po qd after 1 day; assay type: ADME, organism-based; conditions: in vivo
# [7] = Apparent total volume of distribution in fed state healthy human at 200 mg, po administered as single dose; assay type: ADME, organism-based; conditions: in vivo, read-out: Vz/F
# [8] = Plasma concentration in fed state healthy human at 200 mg, po administered as single dose after 24 hrs; assay type: ADME, organism-based
# [9] = Apparent total volume of distribution in fed state female healthy human at 400 mg, po administered as single dose; assay type: ADME, organism-based; conditions: in vivo, read-out: Vz/F
# [10] = AUC (0 to infinity) in fasted state healthy human at 50 mg, po administered as single dose; assay type: ADME, organism-based; parameters: dose 50 mg, route oral, time infinity; conditions: plasma
# [11] = Apparent total volume of distribution in fed state healthy human at 400 mg, po administered as single dose; assay type: ADME, organism-based; conditions: in vivo, read-out: Vz/F
# [12] = Half life in healthy human at 800 mg, po qd after 1 day; assay type: ADME, organism-based; conditions: in vivo
# [13] = Plasma concentration in fed state healthy human at 800 mg, po administered as single dose after 24 hrs; assay type: ADME, organism-based
# [14] = Apparent total volume of distribution in healthy human at 400 mg, po bid after 7 days; assay type: ADME, organism-based; conditions: in vivo, read-out: Vz/F
# [15] = Apparent total plasma clearance in healthy human at 800 mg, po qd after 1 day; assay type: ADME, organism-based
# [16] = Plasma concentration in fasted state healthy human at 100 mg, po administered as single dose after 24 hrs; assay type: ADME, organism-based
# [17] = Tmax in fasted state healthy human at 100 mg, po administered as single dose; assay type: ADME, organism-based; conditions: in vivo
# [18] = AUC (0 to infinity) in fed state healthy human at 800 mg, po administered as single dose; assay type: ADME, organism-based; parameters: dose 800 mg, time infinity, route oral; conditions: plasma
# [19] = test system: Homo sapiens; assay: Toxicity in healthy human assessed as incidence of pollakiuria at 400 mg, po bid and 800 mg, po qd for 7 days; assay type: organism-based; conditions: in vivo, 168 h
# [20] = Half life in healthy human at 400 mg, po bid after 7 days; assay type: ADME, organism-based; conditions: in vivo
# [21] = Tmax in healthy human at 400 mg, po bid after 1 day; assay type: ADME, organism-based; conditions: in vivo
# [22] = AUC (0 to infinity) in fed state healthy human at 200 mg, po administered as single dose; assay type: ADME, organism-based; parameters: dose 200 mg, route oral, time infinity; conditions: plasma
# [23] = AUC (0 to infinity) in fasted state healthy human at 400 mg, po administered as single dose; assay type: ADME, organism-based; parameters: dose 400 mg, time infinity, route oral; conditions: plasma
# [24] = Apparent total volume of distribution in fasted state healthy human at 400 mg, po administered as single dose; assay type: ADME, organism-based; conditions: in vivo, read-out: Vz/F
# [25] = Apparent total plasma clearance in fasted state healthy human at 50 mg, po administered as single dose; assay type: ADME, organism-based
# [26] = AUC (0 to infinity) in fasted state healthy human at 200 mg, po administered as single dose; assay type: ADME, organism-based; parameters: dose 200 mg, time infinity, route oral; conditions: plasma
# [27] = Apparent total plasma clearance in fed state female healthy human at 400 mg, po administered as single dose; assay type: ADME, organism-based
# [28] = Cmax in healthy human at 400 mg, po bid after 7 days; assay type: ADME, organism-based; parameters: dose 400 mg, route oral; conditions: in vivo
# [29] = Trough plasma concentration in healthy human at 800 mg, po qd after 1 day; assay type: ADME, organism-based; conditions: read-out: Cmin
# [30] = Cmax in healthy human at 800 mg, po qd after 7 days; assay type: ADME, organism-based; parameters: dose 800 mg, route oral; conditions: in vivo
# [31] = Cmax in fed state female healthy human at 400 mg, po administered as single dose; assay type: ADME, organism-based; parameters: dose 400 mg, route oral; conditions: in vivo
# [32] = Plasma concentration in fed state female healthy human at 400 mg, po administered as single dose after 24 hrs; assay type: ADME, organism-based
# [33] = Cmax in fasted state healthy human at 50 mg, po administered as single dose; assay type: ADME, organism-based; parameters: dose 50 mg, route oral; conditions: in vivo
# [34] = AUC (0 to infinity) in fed state healthy human at 1200 mg, po administered as single dose; assay type: ADME, organism-based; parameters: dose 1200 mg, route oral, time infinity; conditions: plasma
# [35] = Apparent total plasma clearance in healthy human at 800 mg, po qd after 7 days; assay type: ADME, organism-based
# [36] = Plasma concentration in fasted state healthy human at 200 mg, po administered as single dose after 24 hrs; assay type: ADME, organism-based
# [37] = Trough plasma concentration in healthy human at 800 mg, po qd after 7 days; assay type: ADME, organism-based; conditions: read-out: Cmin
# [38] = Trough plasma concentration in healthy human at 400 mg, po bid after 7 days; assay type: ADME, organism-based; conditions: read-out: Cmin
# [39] = test system: Homo sapiens; assay: Toxicity in healthy human assessed as occurrence of pollakiuria at 50 to 1200 mg, po administered as single dose; assay type: organism-based; conditions: in vivo
# [40] = test system: Homo sapiens; assay: Toxicity in healthy human assessed as occurrence of abnormal dreams at 50 to 1200 mg, po administered as single dose; assay type: organism-based; conditions: in vivo
# [41] = Apparent total volume of distribution in fasted state healthy human at 100 mg, po administered as single dose; assay type: ADME, organism-based; conditions: in vivo, read-out: Vz/F
# [42] = Half life in fasted state healthy human at 100 mg, po administered as single dose; assay type: ADME, organism-based; conditions: in vivo
# [43] = Tmax in fed state healthy human at 400 mg, po administered as single dose; assay type: ADME, organism-based; conditions: in vivo
# [44] = Apparent total volume of distribution in fed state healthy human at 800 mg, po administered as single dose; assay type: ADME, organism-based; conditions: in vivo, read-out: Vz/F
# [45] = AUC (0 to infinity) in fasted state healthy human at 100 mg, po administered as single dose; assay type: ADME, organism-based; parameters: dose 100 mg, time infinity, route oral; conditions: plasma
# [46] = Plasma concentration in fasted state healthy human at 50 mg, po administered as single dose after 24 hrs; assay type: ADME, organism-based
# [47] = Apparent total plasma clearance in fasted state healthy human at 100 mg, po administered as single dose; assay type: ADME, organism-based
# [48] = Tmax in healthy human at 800 mg, po qd after 7 days; assay type: ADME, organism-based; conditions: in vivo
# [49] = Cmax in fasted state healthy human at 400 mg, po administered as single dose; assay type: ADME, organism-based; parameters: dose 400 mg, route oral; conditions: in vivo
# [50] = Half life in fasted state healthy human at 200 mg, po administered as single dose; assay type: ADME, organism-based; conditions: in vivo
# [51] = test system: Homo sapiens; assay: Toxicity in healthy human assessed as occurrence of nausea at 50 to 1200 mg, po administered as single dose; assay type: organism-based; conditions: in vivo
compound,measurement,setting,value
COP(=O)(c1cc(C)cc(/C=C/C#N)c1)c1c(C(N)=O)[nH]c2ccc(Cl)cc12 (stereo unspecified),AUC(0-inf),[1],26500 ng·h/mL
same,half-life,[2],11.5 h
same,CL/F,[3],555 mL/min
same,IC50,[4],1.2 nM
same,CL/F,[5],230 mL/min
same,Tmax,[6],4 h
same,Vd/F,[7],201 L
same,concentration at 24 h,[8],190 ng/mL
same,Vd/F,[9],329 L
same,AUC(0-inf),[10],8800 ng·h/mL
same,Vd/F,[11],166 L
same,half-life,[12],8.3 h
same,concentration at 24 h,[13],540 ng/mL
same,Vd/F,[14],236 L
same,CL/F,[15],252 mL/min
same,concentration at 24 h,[16],90 ng/mL
same,Tmax,[17],1.5 h
same,AUC(0-inf),[18],47200 ng·h/mL
same,Activity,[19],12.5%
same,half-life,[20],12.3 h
same,Tmax,[21],4 h
same,AUC(0-inf),[22],16800 ng·h/mL
same,AUC(0-inf),[23],14700 ng·h/mL
same,Vd/F,[24],606 L
same,CL/F,[25],103 mL/min
same,AUC(0-inf),[26],7100 ng·h/mL
same,CL/F,[27],268 mL/min
same,Cmax,[28],4000 ng/mL
same,concentration at 24 h,[29],900 ng/mL
same,Cmax,[30],4600 ng/mL
same,Cmax,[31],1900 ng/mL
same,concentration at 24 h,[32],290 ng/mL
same,Cmax,[33],1600 ng/mL
same,AUC(0-inf),[34],106000 ng·h/mL
same,CL/F,[35],292 mL/min
same,concentration at 24 h,[36],70 ng/mL
same,concentration at 168 h,[37],900 ng/mL
same,concentration at 168 h,[38],2100 ng/mL
same,Activity,[39],0%
same,Activity,[40],2%
same,Vd/F,[41],66.3 L
same,half-life,[42],6.8 h
same,Tmax,[43],7 h
same,Vd/F,[44],301 L
same,AUC(0-inf),[45],15800 ng·h/mL
same,concentration at 24 h,[46],50 ng/mL
same,CL/F,[47],118 mL/min
same,Tmax,[48],4 h
same,Cmax,[49],1100 ng/mL
same,half-life,[50],11.9 h
same,Activity,[51],4.1%
